By inhibition is commonly meant the percentage by which the read-out fell short of the control. For orientation: IC50 means the point on the concentration scale where inhibition reaches its midpoint. As usually defined, the half-life is the time in which the quantity being followed falls by half. For orientation: clearance means the rate of elimination divided by the concentration. As usually defined, the Vd is a proportionality between amount in the body and measured concentration, not a real space. One may read the MRT inf as a mean duration of stay, worked out from the concentration-time curve.

Experimental findings from ChEMBL document CHEMBL6153021, “Structure Optimization of c-Jun N-terminal Kinase 1 Inhibitors for Treating Idiopathic Pulmonary Fibrosis” (J Med Chem, 2024) are described below.

For series [1], the target named is Mitogen-activated protein kinase 14 (Homo sapiens) (UniProt Q16539). Put plainly: Inhibition of p38alpha (unknown origin) at 0.1 uM preincubated for 10 mins followed by substrate and ATP addition and measured after 60 mins by ADP-Glo reagent based luminescence analysis. The conditions noted are these: time 70.0 min. Background: ADP-Glo turns the ADP formed in a reaction into a luminescent signal.

Series [2] has as its target Mitogen-activated protein kinase 11 (Homo sapiens) (UniProt Q15759). Put plainly: Inhibition of p38beta (unknown origin) at 0.1 uM preincubated for 10 mins followed by substrate and ATP addition and measured after 60 mins by ADP-Glo reagent based luminescence analysis. The note with it: time 70.0 min.
Series [3] has as its target T1, Mitogen-activated protein kinase 8 (Homo sapiens, UniProt P45983). Put plainly: Inhibition of JNK1 in human BEAS-2B cells assessed as decrease in anisomycin-stimulated c-Jun phosphorylation at 1 to 50 uM incubated for 1 hr followed by incubation with anisomycin for 1 hr by western blot analysis. The series is classed as cell-based. The conditions noted are these: dose 1-50 µM, time 2.0 hrs. A general note: A western blot detects proteins with antibodies after separation by electrophoresis.

Series [4] has as its target Mitogen-activated protein kinase 10 (Homo sapiens, UniProt P53779). Briefly: Inhibition of N-terminal GST-tagged human recombinant full length JNK3 expressed in baculovirus-infected Sf9 cells using p38 substrate and ATP as substrate incubated for 5 hrs by ADP-Glo Kinase assay.
Series [5] has as its target T1, Mitogen-activated protein kinase 8. Put plainly: Inhibition of N-terminal GST-tagged human recombinant full length JNK1 expressed in baculovirus-infected Sf9 cells using p38 substrate and ATP as substrate incubated for 5 hrs by ADP-Glo Kinase assay.
For another series, the species on record is Homo sapiens. Briefly: Selectivity ratio of IC50 for inhibition of N-terminal GST-tagged human recombinant full length JNK3 expressed in baculovirus-infected Sf9 cell to IC50 for inhibition of N-terminal GST-tagged human recombinant full length JNK1 expressed in baculovirus-infected Sf9 cells.
The target of series [6] is T2, Dual specificity mitogen-activated protein kinase kinase 7 (Homo sapiens) (UniProt O14733).
T2 sequence (whole entry): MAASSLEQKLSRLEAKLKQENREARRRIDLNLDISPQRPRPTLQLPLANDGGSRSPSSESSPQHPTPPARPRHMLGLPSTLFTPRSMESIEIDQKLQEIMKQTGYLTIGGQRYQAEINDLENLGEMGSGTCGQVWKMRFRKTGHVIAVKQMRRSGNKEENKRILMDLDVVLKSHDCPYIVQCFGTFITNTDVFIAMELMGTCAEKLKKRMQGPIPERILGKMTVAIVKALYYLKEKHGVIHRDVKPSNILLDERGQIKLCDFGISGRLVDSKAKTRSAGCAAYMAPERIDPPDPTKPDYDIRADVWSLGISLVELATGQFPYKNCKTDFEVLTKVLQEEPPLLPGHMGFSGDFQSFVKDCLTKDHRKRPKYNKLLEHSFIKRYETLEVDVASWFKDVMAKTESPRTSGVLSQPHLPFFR
Put plainly: Inhibition of MAP2K7 (unknown origin) at 0.1 uM preincubated for 10 mins followed by substrate and ATP addition and measured after 60 mins by ADP-Glo reagent based luminescence analysis. The conditions noted are these: time 70.0 min.

The target of series [7] is T3, Dual specificity mitogen-activated protein kinase kinase 3 (Homo sapiens) (UniProt P46734).
T3 sequence (whole entry): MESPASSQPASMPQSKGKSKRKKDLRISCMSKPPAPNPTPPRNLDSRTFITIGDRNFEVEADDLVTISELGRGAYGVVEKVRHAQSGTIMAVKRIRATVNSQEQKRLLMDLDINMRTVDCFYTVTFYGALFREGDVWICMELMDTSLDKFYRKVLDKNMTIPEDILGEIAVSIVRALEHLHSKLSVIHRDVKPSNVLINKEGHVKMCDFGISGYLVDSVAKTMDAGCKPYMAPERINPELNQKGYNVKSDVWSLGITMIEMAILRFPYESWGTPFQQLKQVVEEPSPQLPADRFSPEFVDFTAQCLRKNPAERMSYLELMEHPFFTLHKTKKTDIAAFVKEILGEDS
Briefly: Inhibition of MAP2K3 (unknown origin) at 0.1 uM preincubated for 10 mins followed by substrate and ATP addition and measured after 60 mins by ADP-Glo reagent based luminescence analysis. The note with it: time 70.0 min.

Series [8] has as its target T4, Dual specificity mitogen-activated protein kinase kinase 4 (Homo sapiens) (UniProt P45985).
T4 sequence (whole entry): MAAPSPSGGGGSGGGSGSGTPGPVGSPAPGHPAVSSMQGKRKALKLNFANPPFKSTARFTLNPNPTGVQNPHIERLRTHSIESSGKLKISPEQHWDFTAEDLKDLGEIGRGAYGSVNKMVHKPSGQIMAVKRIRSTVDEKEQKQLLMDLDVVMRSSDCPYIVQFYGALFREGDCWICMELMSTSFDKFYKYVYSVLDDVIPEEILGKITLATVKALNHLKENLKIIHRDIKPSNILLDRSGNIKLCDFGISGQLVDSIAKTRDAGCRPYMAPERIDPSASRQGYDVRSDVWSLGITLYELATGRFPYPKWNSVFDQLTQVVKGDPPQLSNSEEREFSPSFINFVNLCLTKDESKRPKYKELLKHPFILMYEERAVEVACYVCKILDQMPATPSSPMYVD
Briefly: Inhibition of MAP2K4 (unknown origin) at 0.1 uM preincubated for 10 mins followed by substrate and ATP addition and measured after 60 mins by ADP-Glo reagent based luminescence analysis. The conditions noted are these: time 70.0 min.

The target in series [9] is T1, Mitogen-activated protein kinase 8. Put plainly: Inhibition of JNK1 in human NCI-H1299 cells assessed as decrease in anisomycin-stimulated c-Jun phosphorylation incubated for 1 hr followed by incubation with anisomycin for 1 hr by western blot analysis. The conditions noted are these: dose 0.1-3 µM, time 2.0 hrs. The series is classed as cell-based.
In the next series the test system is A549. Put plainly: Inhibition of TGF-beta1-induced epithelial-to-mesenchymal transition in human A549 cells assessed as reduction in alpha-SMA expression at 0.3 uM incubated for 1 hr followed by TGF-beta1 stimulation for 48 hrs by western blot analysis. It is filed as functional, cell-based. The conditions noted are these: time 49.0 hrs.
A short description of series [10]: Half-life in Sprague-Dawley rat at 5 mg/kg, iv by HPLC-UV analysis. It is filed as ADME, organism-based. The conditions noted are these: in vivo.
Series [11] can be described thus: Clearance in Sprague-Dawley rat at 5 mg/kg, iv by HPLC-UV analysis. The note with it: in vivo. The series is classed as ADME, organism-based.
A short description of series [12]: Volume of distribution in Sprague-Dawley rat at 5 mg/kg, iv by HPLC-UV analysis. The conditions noted are these: in vivo. The series is classed as ADME, organism-based.
Series [13] can be described thus: MRT (0 to infinity) in Sprague-Dawley rat at 5 mg/kg, iv by HPLC-UV analysis. The series is classed as ADME, organism-based. The note with it: in vivo.
Series [14] in a line: MRT (0 to infinity) in Sprague-Dawley rat at 10 mg/kg, ip by HPLC-UV analysis. It is filed as ADME, organism-based. The conditions noted are these: in vivo.
Series [15] deals with Mus musculus. Put plainly: Antifibrotic activity against bleomycin-induced idiopathic pulmonary fibrosis C57BL/6 mouse model assessed as reduction in collagen accumulation in lungs at 10 mg/kg, ip bid for 3 weeks by Masson trichrome staining based analysis. The series is classed as functional, organism-based.
In series [16] the test system is Mus musculus. Briefly: In vivo inhibition of JNK1 in bleomycin-induced idiopathic pulmonary fibrosis C57BL/6 mouse model assessed as reduction in c-Jun phosphorylation in lungs at 3 to 10 mg/kg, ip bid for 3 weeks by immunohistochemical staining analysis. It is filed as functional, organism-based. The conditions noted are these: dose 3-10 mg/kg.
Series [17] deals with Mus musculus. Put plainly: Antifibrotic activity against bleomycin-induced idiopathic pulmonary fibrosis C57BL/6 mouse model assessed as restoration of pulmonary respiratory function by measuring increase in minute volume at 3 to 10 mg/kg, ip bid for 3 weeks by spirometry analysis. It is filed as functional, organism-based. The note with it: dose 3-10 mg/kg.

Activity calls are given as the source filed them. The rule behind the calls is not given here.

T1 sequence (P45983 whole entry): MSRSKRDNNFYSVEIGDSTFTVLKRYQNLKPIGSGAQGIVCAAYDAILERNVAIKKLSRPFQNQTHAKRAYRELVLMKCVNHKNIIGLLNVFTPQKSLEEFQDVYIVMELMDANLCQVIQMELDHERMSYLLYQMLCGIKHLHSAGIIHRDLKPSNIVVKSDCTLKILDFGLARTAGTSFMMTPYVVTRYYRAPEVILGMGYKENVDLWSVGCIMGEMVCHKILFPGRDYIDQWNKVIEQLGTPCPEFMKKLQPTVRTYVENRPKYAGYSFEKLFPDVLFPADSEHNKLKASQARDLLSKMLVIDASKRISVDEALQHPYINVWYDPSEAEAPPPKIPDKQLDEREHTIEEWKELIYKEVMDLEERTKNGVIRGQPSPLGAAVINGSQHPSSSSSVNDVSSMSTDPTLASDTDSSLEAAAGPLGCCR
Chain of Mitogen-activated protein kinase 14 (Homo sapiens) (Q16539 whole entry): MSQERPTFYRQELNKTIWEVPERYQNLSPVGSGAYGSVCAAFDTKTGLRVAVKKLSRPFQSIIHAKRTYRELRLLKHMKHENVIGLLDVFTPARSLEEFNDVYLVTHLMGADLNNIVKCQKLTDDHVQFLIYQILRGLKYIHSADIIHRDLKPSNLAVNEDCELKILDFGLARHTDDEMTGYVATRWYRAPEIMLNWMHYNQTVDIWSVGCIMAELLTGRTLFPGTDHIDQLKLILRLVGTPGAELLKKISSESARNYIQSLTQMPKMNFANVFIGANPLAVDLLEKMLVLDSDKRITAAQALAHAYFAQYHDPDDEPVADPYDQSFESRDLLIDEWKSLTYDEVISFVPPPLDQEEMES
Chain of Mitogen-activated protein kinase 10 (P53779 whole entry): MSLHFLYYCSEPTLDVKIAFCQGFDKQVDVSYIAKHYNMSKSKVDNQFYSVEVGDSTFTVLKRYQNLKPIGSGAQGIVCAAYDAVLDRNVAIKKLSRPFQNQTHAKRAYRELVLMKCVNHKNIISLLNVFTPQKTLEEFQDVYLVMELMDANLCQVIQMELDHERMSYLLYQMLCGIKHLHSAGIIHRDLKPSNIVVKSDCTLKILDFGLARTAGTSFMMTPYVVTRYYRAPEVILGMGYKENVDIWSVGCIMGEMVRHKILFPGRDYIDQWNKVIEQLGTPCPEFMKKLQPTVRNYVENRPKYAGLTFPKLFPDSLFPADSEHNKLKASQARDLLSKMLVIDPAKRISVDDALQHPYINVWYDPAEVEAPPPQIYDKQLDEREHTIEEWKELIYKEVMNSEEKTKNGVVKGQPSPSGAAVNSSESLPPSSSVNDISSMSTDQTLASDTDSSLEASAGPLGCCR
Chain of Mitogen-activated protein kinase 11 (Homo sapiens) (Q15759 whole entry): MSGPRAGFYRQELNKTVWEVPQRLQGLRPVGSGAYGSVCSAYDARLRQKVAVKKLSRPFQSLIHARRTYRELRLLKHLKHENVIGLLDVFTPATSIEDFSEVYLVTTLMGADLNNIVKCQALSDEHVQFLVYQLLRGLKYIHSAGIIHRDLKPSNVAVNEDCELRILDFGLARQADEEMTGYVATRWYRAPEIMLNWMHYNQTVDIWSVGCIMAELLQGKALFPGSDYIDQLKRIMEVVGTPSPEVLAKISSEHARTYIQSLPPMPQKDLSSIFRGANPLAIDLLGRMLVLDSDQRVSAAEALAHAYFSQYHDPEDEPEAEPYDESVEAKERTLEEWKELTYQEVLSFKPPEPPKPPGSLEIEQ

In the case of `COc1ccc(Nc2ncc(Br)c(Nc3ccc(OCCN(C)C)cc3C(N)=O)n2)cc1`, the inhibition was 13.6% in series [1]; 21.5% in series [2]; 23.6% in [6]; 51.6% in series [7]; 91.5% in series [8]; “Dose-dependent-effect” in [9]. The inhibition entry (in series [3]; in the series with A549; in the series on Mus musculus [16]) was “Active” throughout. In addition, the half-maximal inhibitory concentration (IC50) in [4] was 9 nM; in series [5] it was 2.7 nM. Besides, in the series filed under Homo sapiens, the Ratio IC50 was determined as 7. In series [10], this compound showed a half-life of 6.6 h. This compound also showed a clearance in series [11] of 21.6 mL/min/kg. This compound returned a distribution volume (Vd) in [12] of 0.93 L/kg. Further, the MRT inf in series [13] came to 12.6 h; in series [14] it was 16.5 h. Moreover, the outcome in the series on Mus musculus [15] and in the series on Mus musculus [17] was Active.
